Assay [1] concerns the target T1, Proteinase-activated receptor 1 (Homo sapiens, UniProt P25116).
T1 sequence (P25116 whole entry): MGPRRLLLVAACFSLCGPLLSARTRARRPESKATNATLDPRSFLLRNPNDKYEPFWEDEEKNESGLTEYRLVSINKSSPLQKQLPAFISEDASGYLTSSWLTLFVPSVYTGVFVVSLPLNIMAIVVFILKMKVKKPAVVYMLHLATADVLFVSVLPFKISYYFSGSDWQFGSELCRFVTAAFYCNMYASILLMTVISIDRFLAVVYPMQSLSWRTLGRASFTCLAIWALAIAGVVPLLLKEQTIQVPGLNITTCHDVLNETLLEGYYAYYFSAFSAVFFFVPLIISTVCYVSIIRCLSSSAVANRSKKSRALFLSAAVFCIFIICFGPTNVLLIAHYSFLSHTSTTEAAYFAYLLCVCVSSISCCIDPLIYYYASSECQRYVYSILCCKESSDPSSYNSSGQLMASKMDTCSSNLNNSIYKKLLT
As to the kind of experiment: Inhibition of [3H]S-(p-F-Phe)-Har-L-Har-KY-NH2 binding to thrombin receptor (PAR-1) on membranes from CHRF cells. The assay is classed as cell membranes.

The species entered for the next assay is Homo sapiens. Description: Antagonist activity by using human gel-filtered platelet aggregation. It counts as functional.
Assay [2] concerns the target T1, Proteinase-activated receptor 1. As to the kind of experiment: Inhibition of [3H]S-(p-F-Phe)-Har-L-Har-KY-NH2 binding to Thrombin receptor 1 (PAR-1) on membranes from CHRF cells. The assay is classed as cell membranes.

The structures appear in SMILES notation.

The IC50 is the concentration needed to halve the response being measured. A low value points to greater potency. In the case of `N=C(N)NCCC[C@H](NC(=O)[C@H](CC1CCCCC1)NC(=O)c1n[nH]c(NC(=O)/C=C/c2cccc3ccccc23)n1)C(=O)N[C@@H](Cc1ccccc1)C(N)=O`, the IC50 in assay [1] is 16 µM; in the assay filed under Homo sapiens it was 5.4 µM.

As for `N=C(N)NCCC[C@H](NC(=O)[C@H](CC1CCCCC1)NC(=O)c1n[nH]c(NC(=O)/C=C/c2ccccc2)n1)C(=O)N[C@@H](Cc1ccccc1)C(N)=O`, the IC50 is 9.8 µM in the assay listed under Homo sapiens and 6.4 µM in assay [2].

For the molecule `N=C(N)NCCC[C@H](NC(=O)[C@H](CC1CCCCC1)NC(=O)c1n[nH]c(NC(=O)/C=C/c2ccccc2Cl)n1)C(=O)N[C@@H](Cc1ccccc1)C(N)=O`, the IC50 in the assay listed under Homo sapiens was determined as 3.6 µM; in assay [2], 1.4 µM.

These data come from ChEMBL document CHEMBL1131716, “Heterocycle-peptide hybrid compounds. Aminotriazole-containing agonists of the thrombin receptor (PAR-1)” (Bioorg Med Chem Lett, 1999).
